Data from paper PMC4917279 (Journal of Medicinal Chemistry, 2016).
“Also recorded” adds a separate entry of the source.

Key:
ABL1-nonphosphorylated = biological target: T1, ABL1-nonphosphorylated (Homo sapiens, UniProt P00519); assay: KINOMEscan; format: binding; conditions: read-out: %Ctrl @ 1000 nM
T1 construct: purchased DiscoveRx

FLT3(N841I) = biological target: T2, FLT3(N841I) (Homo sapiens, UniProt P36888, N841I); assay: KINOMEscan; format: binding; conditions: read-out: %Ctrl @ 1000 nM
T2 construct: purchased DiscoveRx KINOMEscan

ASK2 = biological target: T3, ASK2 (Homo sapiens, UniProt O95382); assay: KINOMEscan; format: binding; conditions: read-out: %Ctrl @ 1000 nM
T3 construct: purchased DiscoveRx KINOMEscan

MST2 = biological target: T4, MST2 (Homo sapiens, UniProt Q13188); assay: KINOMEscan; format: binding; conditions: read-out: %Ctrl @ 1000 nM
T4 construct: purchased DiscoveRx KINOMEscan

FES = biological target: T5, FES (Homo sapiens, UniProt P07332); assay: KINOMEscan; format: binding; conditions: read-out: %Ctrl @ 1000 nM
T5 construct: purchased DiscoveRx KINOMEscan

EPHA8 = biological target: T6, EPHA8 (Homo sapiens, UniProt P29322); assay: KINOMEscan; format: binding; conditions: read-out: %Ctrl @ 1000 nM
T6 construct: purchased DiscoveRx KINOMEscan

[1] = biological target: T7, ABL1(E255K)-phosphorylated (Homo sapiens, UniProt P00519, E255K); assay: KINOMEscan; format: binding; conditions: read-out: %Ctrl @ 1000 nM
T7 construct: purchased DiscoveRx (KINOMEscan service)

PIK3CA(Q546K) = biological target: T8, PIK3CA(Q546K) (Homo sapiens, UniProt P42336, Q546K); assay: KINOMEscan; format: binding; conditions: read-out: %Ctrl @ 1000 nM
T8 construct: purchased DiscoveRx KINOMEscan

PIK3CA(M1043I) = biological target: T9, PIK3CA(M1043I) (Homo sapiens, UniProt P42336, M1043I); assay: KINOMEscan; format: binding; conditions: read-out: %Ctrl @ 1000 nM
T9 construct: purchased DiscoveRx KINOMEscan

FLT3(D835Y) = biological target: T10, FLT3(D835Y) (Homo sapiens, UniProt P36888, D835Y); assay: KINOMEscan; format: binding; conditions: read-out: %Ctrl @ 1000 nM
T10 construct: purchased DiscoveRx KINOMEscan

TNNI3K = biological target: T11, TNNI3K (Homo sapiens, UniProt Q59H18); assay: KINOMEscan; format: binding; conditions: read-out: %Ctrl @ 1000 nM
T11 construct: purchased DiscoveRx KINOMEscan

ULK3 = biological target: T12, ULK3 (Homo sapiens, UniProt Q6PHR2); assay: KINOMEscan; format: binding; conditions: read-out: %Ctrl @ 1000 nM
T12 construct: purchased DiscoveRx KINOMEscan

MARK4 = biological target: T13, MARK4 (Homo sapiens, UniProt Q96L34); assay: KINOMEscan; format: binding; conditions: read-out: %Ctrl @ 1000 nM
T13 construct: purchased DiscoveRx KINOMEscan

DYRK2 = biological target: T14, DYRK2 (Homo sapiens, UniProt Q92630); assay: KINOMEscan; format: binding; conditions: read-out: %Ctrl @ 1000 nM
T14 construct: purchased DiscoveRx KINOMEscan

EGFR(S752-I759del) = biological target: T15, EGFR(S752-I759del) (Homo sapiens, UniProt P00533, DEL752-759); assay: KINOMEscan; format: binding; conditions: read-out: %Ctrl @ 1000 nM
T15 construct: purchased DiscoveRx KINOMEscan

AXL = biological target: T16, AXL (Homo sapiens, UniProt P30530); assay: KINOMEscan; format: binding; conditions: read-out: %Ctrl @ 1000 nM
T16 construct: purchased DiscoveRx KINOMEscan

EPHA7 = biological target: T17, EPHA7 (Homo sapiens, UniProt Q15375); assay: KINOMEscan; format: binding; conditions: read-out: %Ctrl @ 1000 nM
T17 construct: purchased DiscoveRx KINOMEscan

SBK1 = biological target: T18, SBK1 (Homo sapiens, UniProt Q52WX2); assay: KINOMEscan; format: binding; conditions: read-out: %Ctrl @ 1000 nM
T18 construct: purchased DiscoveRx KINOMEscan

[2] = test system: KYSE-150, U2OS, and A2780 cell lines; assay: Caspase 3/7 activation assay; format: cell-based
Experimental: Effects on apoptosis induction were measured with the Caspase-Glo 3/7 Assay System (Promega).

MST3 = biological target: T19, MST3 (Homo sapiens, UniProt Q9Y6E0); assay: KINOMEscan; format: binding; conditions: read-out: %Ctrl @ 1000 nM
T19 construct: purchased DiscoveRx KINOMEscan

MEK2 = biological target: T20, MEK2 (Homo sapiens, UniProt P36507); assay: KINOMEscan; format: binding; conditions: read-out: %Ctrl @ 1000 nM
T20 construct: purchased DiscoveRx KINOMEscan

[3] = biological target: T21, RSK4(Kin.Dom.1-N-terminal) (Homo sapiens, UniProt Q9UK32); assay: KINOMEscan; format: binding; conditions: read-out: %Ctrl @ 1000 nM
T21 construct: RSK4(Kin.Dom.1-N-terminal); purchased DiscoveRx KINOMEscan

[4] = biological target: T22, ABL1(F317L)-nonphosphorylated (Homo sapiens, UniProt P00519, F317L); assay: KINOMEscan; format: binding; conditions: read-out: %Ctrl @ 1000 nM
T22 construct: purchased DiscoveRx (KINOMEscan service)

ACVR1B = biological target: T23, ACVR1B (Homo sapiens, UniProt P36896); assay: KINOMEscan; format: binding; conditions: read-out: %Ctrl @ 1000 nM
T23 construct: purchased DiscoveRx

KIT(V559D,T670I) = biological target: T24, KIT(V559D,T670I) (Homo sapiens, UniProt P10721, T670I/V559D); assay: KINOMEscan; format: binding; conditions: read-out: %Ctrl @ 1000 nM
T24 construct: purchased DiscoveRx KINOMEscan

MAP4K2 = biological target: T25, MAP4K2 (Homo sapiens, UniProt Q12851); assay: KINOMEscan; format: binding; conditions: read-out: %Ctrl @ 1000 nM
T25 construct: purchased DiscoveRx KINOMEscan

INSRR = biological target: T26, INSRR (Homo sapiens, UniProt P14616); assay: KINOMEscan; format: binding; conditions: read-out: %Ctrl @ 1000 nM
T26 construct: purchased DiscoveRx KINOMEscan

SMYD2 = SMYD2 (Homo sapiens, UniProt Q9NRG4); assay: AHNAK methylation Western blot in MDA-MB231 cells overexpressing SMYD2; format: cell-based; parameters: expressed in transfected cells
CDK3 = biological target: T27, CDK3 (Homo sapiens, UniProt Q00526); assay: KINOMEscan; format: binding; conditions: read-out: %Ctrl @ 1000 nM
T27 construct: purchased DiscoveRx KINOMEscan

AAK1 = biological target: T28, AAK1 (Homo sapiens, UniProt Q2M2I8); assay: KINOMEscan; format: binding; conditions: read-out: %Ctrl @ 1000 nM
T28 construct: purchased DiscoveRx (KINOMEscan service)

BRAF = biological target: T29, BRAF (Homo sapiens, UniProt P15056); assay: KINOMEscan; format: binding; conditions: read-out: %Ctrl @ 1000 nM
T29 construct: purchased DiscoveRx KINOMEscan

CDK9 = biological target: T30, CDK9 (Homo sapiens, UniProt P50750); assay: KINOMEscan; format: binding; conditions: read-out: %Ctrl @ 1000 nM
T30 construct: purchased DiscoveRx KINOMEscan

CDK4-cyclinD3 = biological target: T31, CDK4-cyclinD3 (Homo sapiens, UniProt P11802); assay: KINOMEscan; format: binding; conditions: read-out: %Ctrl @ 1000 nM
T31 construct: purchased DiscoveRx KINOMEscan

RET(M918T) = biological target: T32, RET(M918T) (Homo sapiens, UniProt P07949, M918T); assay: KINOMEscan; format: binding; conditions: read-out: %Ctrl @ 1000 nM
T32 construct: purchased DiscoveRx KINOMEscan

RIPK2 = biological target: T33, RIPK2 (Homo sapiens, UniProt O43353); assay: KINOMEscan; format: binding; conditions: read-out: %Ctrl @ 1000 nM
T33 construct: purchased DiscoveRx KINOMEscan

EGFR(L858R) = biological target: T34, EGFR(L858R) (Homo sapiens, UniProt P00533, L858R); assay: KINOMEscan; format: binding; conditions: read-out: %Ctrl @ 1000 nM
T34 construct: purchased DiscoveRx KINOMEscan

SNRK = biological target: T35, SNRK (Homo sapiens, UniProt Q9NRH2); assay: KINOMEscan; format: binding; conditions: read-out: %Ctrl @ 1000 nM
T35 construct: purchased DiscoveRx KINOMEscan

MET(Y1235D) = biological target: T36, MET(Y1235D) (Homo sapiens, UniProt P08581, Y1235D); assay: KINOMEscan; format: binding; conditions: read-out: %Ctrl @ 1000 nM
T36 construct: purchased DiscoveRx KINOMEscan

NEK4 = biological target: T37, NEK4 (Homo sapiens, UniProt P51957); assay: KINOMEscan; format: binding; conditions: read-out: %Ctrl @ 1000 nM
T37 construct: purchased DiscoveRx KINOMEscan

MST1 = biological target: T38, MST1 (Homo sapiens, UniProt Q13043); assay: KINOMEscan; format: binding; conditions: read-out: %Ctrl @ 1000 nM
T38 construct: purchased DiscoveRx KINOMEscan
T38 sequence (Q13043 whole entry): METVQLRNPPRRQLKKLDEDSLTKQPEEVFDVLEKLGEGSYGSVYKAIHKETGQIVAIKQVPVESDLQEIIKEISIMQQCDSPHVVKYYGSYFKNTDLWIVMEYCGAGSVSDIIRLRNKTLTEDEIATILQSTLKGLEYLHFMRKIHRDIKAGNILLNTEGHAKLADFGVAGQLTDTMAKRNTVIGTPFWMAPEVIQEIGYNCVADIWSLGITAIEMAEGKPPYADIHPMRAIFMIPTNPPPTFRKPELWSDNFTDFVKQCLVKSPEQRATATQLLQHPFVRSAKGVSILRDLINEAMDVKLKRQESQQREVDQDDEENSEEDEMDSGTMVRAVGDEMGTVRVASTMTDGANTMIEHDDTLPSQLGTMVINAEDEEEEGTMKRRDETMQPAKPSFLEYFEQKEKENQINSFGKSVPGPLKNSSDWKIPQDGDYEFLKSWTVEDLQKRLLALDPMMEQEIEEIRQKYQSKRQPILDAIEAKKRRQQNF

SMYD2, sequence (Q9NRG4 whole entry): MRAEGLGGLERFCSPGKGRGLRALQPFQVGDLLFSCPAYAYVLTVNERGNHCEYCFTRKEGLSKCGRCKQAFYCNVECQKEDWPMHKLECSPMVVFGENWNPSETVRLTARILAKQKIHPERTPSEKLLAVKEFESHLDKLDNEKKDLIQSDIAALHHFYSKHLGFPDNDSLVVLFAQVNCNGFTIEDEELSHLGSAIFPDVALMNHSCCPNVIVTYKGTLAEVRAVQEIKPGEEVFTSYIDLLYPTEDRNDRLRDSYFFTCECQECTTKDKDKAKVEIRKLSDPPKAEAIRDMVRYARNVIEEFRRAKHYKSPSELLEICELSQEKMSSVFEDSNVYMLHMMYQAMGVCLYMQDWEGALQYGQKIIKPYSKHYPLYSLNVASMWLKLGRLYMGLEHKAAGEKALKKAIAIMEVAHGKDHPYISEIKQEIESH
T37 sequence (P51957 whole entry): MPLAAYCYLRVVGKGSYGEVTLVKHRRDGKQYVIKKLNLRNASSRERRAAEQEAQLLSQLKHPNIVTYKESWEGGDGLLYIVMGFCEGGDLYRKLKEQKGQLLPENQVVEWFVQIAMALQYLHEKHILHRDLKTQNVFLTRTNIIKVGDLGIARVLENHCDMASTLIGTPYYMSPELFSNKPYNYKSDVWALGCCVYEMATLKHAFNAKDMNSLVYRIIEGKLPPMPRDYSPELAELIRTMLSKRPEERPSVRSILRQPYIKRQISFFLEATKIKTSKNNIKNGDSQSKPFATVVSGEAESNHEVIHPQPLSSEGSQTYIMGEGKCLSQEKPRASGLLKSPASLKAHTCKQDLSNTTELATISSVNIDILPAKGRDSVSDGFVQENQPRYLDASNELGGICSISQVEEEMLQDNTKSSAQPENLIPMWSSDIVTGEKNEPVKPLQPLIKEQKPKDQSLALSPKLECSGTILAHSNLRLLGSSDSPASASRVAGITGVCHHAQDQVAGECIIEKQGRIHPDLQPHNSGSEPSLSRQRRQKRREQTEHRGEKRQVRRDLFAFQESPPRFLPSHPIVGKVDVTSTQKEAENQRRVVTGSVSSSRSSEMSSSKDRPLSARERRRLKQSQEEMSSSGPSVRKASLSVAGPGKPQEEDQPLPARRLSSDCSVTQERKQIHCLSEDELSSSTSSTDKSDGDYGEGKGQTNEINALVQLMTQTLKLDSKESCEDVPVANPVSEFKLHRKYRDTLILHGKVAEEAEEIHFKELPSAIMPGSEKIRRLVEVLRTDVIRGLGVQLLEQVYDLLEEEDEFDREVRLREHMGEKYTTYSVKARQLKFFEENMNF
T24 sequence (P10721 26-976 V559D/T670I): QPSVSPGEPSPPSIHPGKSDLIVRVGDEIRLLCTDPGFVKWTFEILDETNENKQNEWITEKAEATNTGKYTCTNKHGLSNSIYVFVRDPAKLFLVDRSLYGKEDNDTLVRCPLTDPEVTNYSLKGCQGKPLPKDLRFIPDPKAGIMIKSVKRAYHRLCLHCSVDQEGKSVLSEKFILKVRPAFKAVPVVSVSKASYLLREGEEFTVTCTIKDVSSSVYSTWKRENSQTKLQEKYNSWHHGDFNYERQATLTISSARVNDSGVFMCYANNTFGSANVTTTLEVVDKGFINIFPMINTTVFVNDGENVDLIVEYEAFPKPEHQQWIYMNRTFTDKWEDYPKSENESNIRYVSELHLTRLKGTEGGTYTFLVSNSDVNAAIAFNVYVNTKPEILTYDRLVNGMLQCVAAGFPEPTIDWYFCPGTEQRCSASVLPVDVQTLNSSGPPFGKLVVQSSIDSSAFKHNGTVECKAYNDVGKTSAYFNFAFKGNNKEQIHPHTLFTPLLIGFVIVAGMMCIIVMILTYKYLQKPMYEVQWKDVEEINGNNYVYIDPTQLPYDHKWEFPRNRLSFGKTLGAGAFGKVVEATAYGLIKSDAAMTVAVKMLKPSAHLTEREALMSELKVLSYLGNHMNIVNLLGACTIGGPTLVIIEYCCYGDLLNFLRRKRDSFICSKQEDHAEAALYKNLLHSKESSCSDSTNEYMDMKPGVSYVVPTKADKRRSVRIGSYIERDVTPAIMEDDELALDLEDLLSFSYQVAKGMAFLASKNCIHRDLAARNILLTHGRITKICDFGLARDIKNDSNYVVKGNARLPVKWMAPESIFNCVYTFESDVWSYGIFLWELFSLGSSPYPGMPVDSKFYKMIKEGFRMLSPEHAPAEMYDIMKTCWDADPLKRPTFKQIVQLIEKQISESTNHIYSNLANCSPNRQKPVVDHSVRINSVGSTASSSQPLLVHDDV
T7 sequence (P00519 whole entry E255K): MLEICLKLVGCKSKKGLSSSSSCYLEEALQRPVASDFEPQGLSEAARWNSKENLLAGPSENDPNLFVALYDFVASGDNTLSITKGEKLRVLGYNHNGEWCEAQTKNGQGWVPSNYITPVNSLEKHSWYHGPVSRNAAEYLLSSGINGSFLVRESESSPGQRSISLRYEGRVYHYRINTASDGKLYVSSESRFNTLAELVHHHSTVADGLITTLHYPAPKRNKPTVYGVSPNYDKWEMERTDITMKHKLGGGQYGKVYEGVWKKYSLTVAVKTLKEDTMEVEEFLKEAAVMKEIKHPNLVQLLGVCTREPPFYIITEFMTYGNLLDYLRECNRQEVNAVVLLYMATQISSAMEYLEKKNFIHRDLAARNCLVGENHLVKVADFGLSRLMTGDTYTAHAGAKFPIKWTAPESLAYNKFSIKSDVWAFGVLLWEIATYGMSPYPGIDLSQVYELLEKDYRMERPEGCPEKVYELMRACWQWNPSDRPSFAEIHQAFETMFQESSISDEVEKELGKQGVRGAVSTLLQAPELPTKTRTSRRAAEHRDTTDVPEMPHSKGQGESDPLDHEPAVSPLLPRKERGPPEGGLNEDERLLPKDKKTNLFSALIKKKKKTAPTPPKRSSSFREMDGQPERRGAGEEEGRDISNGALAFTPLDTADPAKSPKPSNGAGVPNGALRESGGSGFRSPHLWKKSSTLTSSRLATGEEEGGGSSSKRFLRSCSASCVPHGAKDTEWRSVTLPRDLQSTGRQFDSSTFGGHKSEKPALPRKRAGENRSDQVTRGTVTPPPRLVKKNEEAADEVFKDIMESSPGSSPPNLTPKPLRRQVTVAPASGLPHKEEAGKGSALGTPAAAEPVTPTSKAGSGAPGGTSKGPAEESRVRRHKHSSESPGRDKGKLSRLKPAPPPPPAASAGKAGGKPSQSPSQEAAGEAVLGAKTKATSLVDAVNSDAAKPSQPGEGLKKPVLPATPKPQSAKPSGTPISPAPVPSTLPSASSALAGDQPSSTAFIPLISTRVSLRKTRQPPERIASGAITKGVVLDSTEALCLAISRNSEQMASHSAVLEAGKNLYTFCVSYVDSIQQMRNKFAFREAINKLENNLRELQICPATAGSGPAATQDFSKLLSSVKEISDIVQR
T25 sequence (Q12851 whole entry): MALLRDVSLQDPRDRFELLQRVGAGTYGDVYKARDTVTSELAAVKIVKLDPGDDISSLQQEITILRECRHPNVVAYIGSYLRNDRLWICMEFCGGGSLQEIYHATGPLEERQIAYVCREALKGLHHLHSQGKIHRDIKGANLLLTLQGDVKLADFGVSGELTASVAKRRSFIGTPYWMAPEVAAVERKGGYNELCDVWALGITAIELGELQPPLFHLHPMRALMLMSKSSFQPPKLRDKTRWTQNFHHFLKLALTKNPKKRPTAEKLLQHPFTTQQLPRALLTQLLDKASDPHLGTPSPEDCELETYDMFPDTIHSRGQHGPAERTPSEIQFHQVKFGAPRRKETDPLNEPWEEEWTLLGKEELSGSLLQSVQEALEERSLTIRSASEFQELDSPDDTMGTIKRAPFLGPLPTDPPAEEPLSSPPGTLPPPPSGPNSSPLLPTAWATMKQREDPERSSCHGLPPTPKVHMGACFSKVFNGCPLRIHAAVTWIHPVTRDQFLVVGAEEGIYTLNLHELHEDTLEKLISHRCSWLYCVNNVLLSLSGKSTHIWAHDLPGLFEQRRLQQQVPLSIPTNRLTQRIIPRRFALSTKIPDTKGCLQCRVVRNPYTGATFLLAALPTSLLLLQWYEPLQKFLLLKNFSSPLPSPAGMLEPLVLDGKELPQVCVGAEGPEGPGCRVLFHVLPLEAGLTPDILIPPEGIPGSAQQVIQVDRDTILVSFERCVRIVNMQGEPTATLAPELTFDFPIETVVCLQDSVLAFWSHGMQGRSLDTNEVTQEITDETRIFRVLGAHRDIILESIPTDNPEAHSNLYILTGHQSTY
T20 sequence (P36507 whole entry): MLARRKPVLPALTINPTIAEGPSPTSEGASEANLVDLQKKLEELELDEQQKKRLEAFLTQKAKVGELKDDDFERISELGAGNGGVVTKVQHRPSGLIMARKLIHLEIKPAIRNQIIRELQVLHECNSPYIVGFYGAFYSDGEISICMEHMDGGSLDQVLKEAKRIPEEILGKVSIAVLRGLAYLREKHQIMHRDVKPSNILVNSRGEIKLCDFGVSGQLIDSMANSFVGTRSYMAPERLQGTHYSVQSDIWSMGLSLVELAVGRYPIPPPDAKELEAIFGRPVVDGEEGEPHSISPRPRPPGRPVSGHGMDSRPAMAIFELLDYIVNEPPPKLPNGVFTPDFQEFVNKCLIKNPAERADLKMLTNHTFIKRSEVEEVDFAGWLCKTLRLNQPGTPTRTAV

CCN(C(=O)CO)[C@H]1CN(/C(=N\C#N)Nc2cccc(OC(F)F)c2)N=C1c1ccc(Cl)c(Cl)c1 [(S)-4]
remaining binding at 1 µM (ABL1-nonphosphorylated): 79% | remaining binding at 1 µM (FLT3(N841I)): 95% | remaining binding at 1 µM (ASK2): 93% | remaining binding at 1 µM (MST2): 88% | remaining binding at 1 µM (FES): 92% | remaining binding at 1 µM (EPHA8): 94% | remaining binding at 1 µM [1]: 85% | remaining binding at 1 µM (PIK3CA(Q546K)): 86% | remaining binding at 1 µM (PIK3CA(M1043I)): 68% | remaining binding at 1 µM (FLT3(D835Y)): 78% | remaining binding at 1 µM (TNNI3K): 73% | remaining binding at 1 µM (ULK3): 74% | remaining binding at 1 µM (MARK4): 75% | remaining binding at 1 µM (DYRK2): 100% | remaining binding at 1 µM (EGFR(S752-I759del)): 100% | remaining binding at 1 µM (AXL): 91% | remaining binding at 1 µM (EPHA7): 91% | remaining binding at 1 µM (SBK1): 88% | Caspase 3/7 activation in combination with doxorubicin ([2]; 2 days pretreatment, then doxorubicin 24 h, KYSE-150, U2OS, A2780): significantly improved; also recorded: significantly improving | Apoptosis induction alone ([2]; without doxorubicin): without inducing apoptosis alone | remaining binding at 1 µM (MST3): 100% | remaining binding at 1 µM (MEK2): 90% | remaining binding at 1 µM [3]: 92% | remaining binding at 1 µM [4]: 100% | remaining binding at 1 µM (ACVR1B): 100% | remaining binding at 1 µM (KIT(V559D,T670I)): 100% | remaining binding at 1 µM (MAP4K2): 96% | remaining binding at 1 µM (INSRR): 85% | AHNAK methylation (Western blot) (SMYD2): specifically reduced methylation of AHNAK; also recorded: inhibits concentration dependent | remaining binding at 1 µM (CDK3): 91% | remaining binding at 1 µM (AAK1): 78% | remaining binding at 1 µM (BRAF): 100% | remaining binding at 1 µM (CDK9): 74% | remaining binding at 1 µM (CDK4-cyclinD3): 100% | remaining binding at 1 µM (RET(M918T)): 80% | remaining binding at 1 µM (RIPK2): 75% | remaining binding at 1 µM (EGFR(L858R)): 91% | remaining binding at 1 µM (SNRK): 85% | remaining binding at 1 µM (MET(Y1235D)): 100% | remaining binding at 1 µM (NEK4): 100% | remaining binding at 1 µM (MST1): 68%
